The assay concerns C2C12. Kind of assay: Induction of [3H]2-deoxy-D-glucose uptake in mouse C2C12 cells after 18 hrs by scintillation counting. In kind it is functional, cell-based.

Consider `C=C(C)[C@@H]1CC[C@]2(CO)CC[C@]3(C)[C@H](CC[C@@H]4[C@@]5(C)CC[C@H](OC(=O)/C=C/c6ccc(O)c(O)c6)[C@@](C)(CO)[C@@H]5CC[C@]43C)[C@@H]12`, for which the EC50 (in general, the concentration that produces a half-maximal response) amounted to 1470 nM.

The record behind these values is ChEMBL document CHEMBL1221397, “Bioassay-guided isolation of the antidiabetic principle from Sorbus decora (Rosaceae) used traditionally by the Eeyou Istchee Cree First Nations” (J Nat Prod, 2010).
